Literature values in patent publication US10391087B2, “Combination of oxymetazoline and ipratropium in topical nasal application for the treatment of a cough” (priority 2015, dated 2019).
Read-outs that look alike come from different tables or passages of the source. Blank lines part the entries; values can stand above or below the compound they belong to.

Tests used:
[1] = tested on: ileum guinea pigs nerve tissue; details: range 20 to 70% with increasing concentrations of noradrenaline
α-1 and α-2 receptors = details: inhibited by α-1 antagonist prazosin, minimal inhibition by α-2 antagonist yohimbine
[2] = tested on: cardiac response of rabbit vagal electrical stimulation; details: rabbit heart
human α1A-adrenoceptors = target: T1, human α1A-adrenoceptors (Homo sapiens, UniProt P35348); details: heterologous cells expressing human α1A-adrenoceptors
T1 sequence (P35348 1-466): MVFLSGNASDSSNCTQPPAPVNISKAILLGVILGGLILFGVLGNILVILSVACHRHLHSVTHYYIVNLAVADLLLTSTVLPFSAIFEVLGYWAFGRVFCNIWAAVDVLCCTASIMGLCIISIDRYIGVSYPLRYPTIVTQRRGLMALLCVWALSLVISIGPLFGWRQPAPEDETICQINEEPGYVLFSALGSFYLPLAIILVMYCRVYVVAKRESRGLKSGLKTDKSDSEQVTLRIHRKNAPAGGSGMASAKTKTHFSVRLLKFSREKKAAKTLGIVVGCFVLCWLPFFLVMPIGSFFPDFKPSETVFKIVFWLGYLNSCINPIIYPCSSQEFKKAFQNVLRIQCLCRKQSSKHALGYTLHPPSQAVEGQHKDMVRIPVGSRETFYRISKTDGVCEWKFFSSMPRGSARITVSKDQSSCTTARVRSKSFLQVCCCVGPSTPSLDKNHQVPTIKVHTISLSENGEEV

[3] = tested on: nasal secretion (rhinorrhea)

SMILES: NC[C@H](O)c1ccc(O)c(O)c1 [Noradrenaline, noradrenaline]
- reduction of acetilcoline discharge, average [1]: 56.8%

- contraction (α-1 and α-2 receptors): dose dependent contraction
- Ca2+ responses (human α1A-adrenoceptors): induce responses Ca^2+
SMILES: Cc1cc(C(C)(C)C)c(O)c(C)c1CC1=NCCN1 [oximetazoline, oxymetazoline]
- blood pressure (large doses of 0.3%): significant increase in blood pressure
- blood pressure (standard doses of 0.01 to 0.1%): no
- cardiac response of vagal electrical stimulation [2]: significantly inhibited

SMILES: CC(C)[N+]1(C)[C@@H]2CC[C@H]1C[C@@H](OC(=O)C(CO)c1ccccc1)C2 (stereo partly shown) [ipratropium]
- nasal discharge ([3]; four studies, ipratropium alone, intranasally): lower nasal discharge

SMILES: Cc1cc(C(C)(C)C)cc(C)c1CC1=NCCN1 [xilometazoline]
- rhinorrhea ([3]; 5 to 10 days after start of the infectious process, p<0.05): decreased rhinorrhea
- nasal secretion compared with placebo ([3]; Eccles 2008, xilometazoline alone, p<0.05): decreased nasal secretion
- rhinorrhea ([3]; another study, measured on day 1 of administration): increases
